Test results: patent US7998987B2, “Inhibitors of c-Met and uses thereof” (Vertex Pharmaceuticals Incorporated, priority 2005, dated 2011)
pKi: −log10 of the molar value.

Target: c-Met (Homo sapiens, UniProt P08581)
Experiment: Ki determination for the inhibition of c-Met kinase activity (standard coupled enzyme system)
Assay type: biochemical
Details: not given
Procedure: Ki Determination for the Inhibition of c-Met
Reactions were carried out in a solution containing 100 mM HEPES (pH 7.5), 10 mM MgCl2, 25 mM NaCl, 300 μM NADH, 1 mM DTT, and 1.5% DMSO. Final substrate concentrations in the assay were 200 μM ATP (Sigma Chemicals, St Louis, Mo.) and 10 μM polyGluTyr (Sigma Chemical Company, St. Louis). Reactions were carried out at 30° C. and 80 nM c-Met. Final concentrations of the components of the coupled enzyme system were 2.5 mM phosphoenolpyruvate, 300 μM NADH, 30 μg/ml pyruvate kinase and 10 μg/ml lactate dehydrogenase.
An assay stock buffer solution was prepared containing all of the reagents listed above with the exception of ATP and a test compound of the present invention. […] The reaction was initiated by the addition of 20 μL of ATP (final concentration 200 μM). Rates of reaction were obtained using a Molecular Devices Spectramax plate reader (Sunnyvale, Calif.) over 10 minutes at 30° C. The Ki values were determined from the rate data as a function of inhibitor concentration.

c-Met, sequence (P08581 25-1390): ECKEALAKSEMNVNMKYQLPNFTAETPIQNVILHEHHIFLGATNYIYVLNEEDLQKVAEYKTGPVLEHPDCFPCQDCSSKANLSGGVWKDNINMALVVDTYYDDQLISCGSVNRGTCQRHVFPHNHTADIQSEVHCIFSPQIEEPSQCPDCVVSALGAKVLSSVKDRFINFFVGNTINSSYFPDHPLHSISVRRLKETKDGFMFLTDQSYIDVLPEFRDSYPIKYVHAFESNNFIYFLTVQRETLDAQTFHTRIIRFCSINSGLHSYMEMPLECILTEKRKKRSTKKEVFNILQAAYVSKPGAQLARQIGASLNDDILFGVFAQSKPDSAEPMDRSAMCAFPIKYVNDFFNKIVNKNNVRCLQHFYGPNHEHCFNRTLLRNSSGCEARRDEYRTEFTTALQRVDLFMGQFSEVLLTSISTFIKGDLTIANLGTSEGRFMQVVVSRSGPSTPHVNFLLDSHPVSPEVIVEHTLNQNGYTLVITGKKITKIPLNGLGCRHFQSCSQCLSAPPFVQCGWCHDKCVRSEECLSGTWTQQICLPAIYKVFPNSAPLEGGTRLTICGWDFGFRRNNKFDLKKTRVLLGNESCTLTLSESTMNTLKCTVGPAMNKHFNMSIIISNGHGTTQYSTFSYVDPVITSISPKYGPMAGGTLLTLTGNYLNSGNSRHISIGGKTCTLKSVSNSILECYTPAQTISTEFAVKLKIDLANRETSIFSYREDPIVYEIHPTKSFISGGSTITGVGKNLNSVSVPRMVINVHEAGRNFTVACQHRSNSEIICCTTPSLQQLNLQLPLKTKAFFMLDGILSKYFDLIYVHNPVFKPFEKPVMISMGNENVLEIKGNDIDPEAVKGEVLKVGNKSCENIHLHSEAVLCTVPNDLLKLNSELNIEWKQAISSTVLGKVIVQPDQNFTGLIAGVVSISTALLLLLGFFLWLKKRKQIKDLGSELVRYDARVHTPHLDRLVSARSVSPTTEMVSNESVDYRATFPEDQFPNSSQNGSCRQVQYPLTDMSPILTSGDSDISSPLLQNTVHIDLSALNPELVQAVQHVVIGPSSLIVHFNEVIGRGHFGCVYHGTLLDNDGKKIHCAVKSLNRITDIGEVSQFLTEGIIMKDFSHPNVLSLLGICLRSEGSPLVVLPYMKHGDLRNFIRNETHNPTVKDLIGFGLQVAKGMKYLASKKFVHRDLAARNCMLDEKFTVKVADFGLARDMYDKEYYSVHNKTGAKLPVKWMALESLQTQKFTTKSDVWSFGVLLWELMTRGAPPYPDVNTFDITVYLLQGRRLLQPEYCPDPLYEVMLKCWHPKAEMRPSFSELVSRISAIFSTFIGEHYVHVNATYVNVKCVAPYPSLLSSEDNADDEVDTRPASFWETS

Structure (SMILES)	pKi
C[C@@H](c1ccc(OP(=O)(O)O)cc1)c1nnc2sc(Nc3cccc(Cl)c3)nn12 [Compound 170]	5.70 to 7.00

Same assay, conditions: coupled enzyme system, 200 μM ATP, 10 μM polyGluTyr, 80 nM c-Met, 30° C.; read-out: c-Met Ki

Structure (SMILES)	pKi
C[C@@H](c1ccc(O)cc1)c1nnc2sc(Nc3ccc(F)c(Cl)c3)nn12 [Compound 159]	> 7.00
Oc1cccc2c1ccn2Cc1nnc2sc(Nc3cccc(C(F)(F)F)c3)nn12 [Compound 160]	> 7.00
CC(c1nnc2sc(Nc3cccc(Cl)c3)nn12)n1ccc2ncccc21 (centres unmarked) [Compound 161]	> 7.00
C[C@@H](c1ccc(O)cc1)c1nnc2sc(Nc3cncc(Cl)c3)nn12 [Compound 162]	> 7.00
CC(Oc1ccc2ncccc2c1)c1nnc2sc(Nc3cccc(Cl)c3)nn12 (centres unmarked) [Compound 163]	< 5.70
CC(Oc1ccc2cccnc2c1)c1nnc2sc(Nc3cccc(Cl)c3)nn12 (centres unmarked) [Compound 164]	< 5.70
CC(C)[C@@H](N)C(=O)Oc1ccc([C@H](C)c2nnc3sc(Nc4cccc(F)c4)nn23)cc1 [Compound 165]	> 7.00
C[C@@H](c1ccc(OC(=O)[C@@H](C)N)cc1)c1nnc2sc(Nc3cccc(F)c3)nn12 [Compound 166]	> 7.00
C[C@@H](c1ccc(OC(=O)[C@@H](C)N)cc1)c1nnc2sc(Nc3cccc(Cl)c3)nn12 [Compound 167]	> 7.00
CC(C)[C@@H](N)C(=O)Oc1ccc([C@H](C)c2nnc3sc(Nc4cccc(Cl)c4)nn23)cc1 [Compound 168]	> 7.00
CSc1cccc(Nc2nn3c(Cn4ccc5c(O)cccc54)nnc3s2)c1 [Compound 169]	> 7.00
Fc1ccc(Cc2nnc3sc(Nc4cccc(Cl)c4)nn23)cc1 [Compound 171]	> 7.00
C[C@@H](c1ccc(O)c(C(C)(C)C)c1)c1nnc2sc(Nc3cccc(F)c3)nn12 [Compound 172]	5.70 to 7.00
CC(C)Oc1cccc(Nc2nn3c([C@@H](C)c4ccc(O)cc4)nnc3s2)c1 [Compound 173]	> 7.00
Oc1ccc(Cc2nnc3ccc(Cl)nn23)cc1 [Compound 174]	5.70 to 7.00
Oc1ccc(Cc2nnc3ccc(-c4ccccc4)nn23)cc1 [Compound 176]	5.70 to 7.00
Oc1ccc(Cc2nnc3ccc(N4CCCCC4)nn23)cc1 [Compound 177]	5.70 to 7.00
Oc1ccc(Cc2nnc3ccc(Nc4ccccc4)nn23)cc1 [Compound 178]	> 7.00
NC(=O)C1CCCN(c2ccc3nnc(Cc4ccc(O)cc4)n3n2)C1 (centres unmarked) [Compound 179]	< 5.70
Oc1ccc(Cc2nnc3ccc(NCCCn4ccnc4)nn23)cc1 [Compound 180]	5.70 to 7.00
CC(C)Oc1cccc(Nc2ccc3nnc(Cc4ccc(O)cc4)n3n2)c1 [Compound 181]	> 7.00

Structure (SMILES)	pKi
CC(C)(C)c1cccc(Nc2ccc3nnc(Cc4ccc(O)cc4)n3n2)c1 [Compound 182]	> 7.00
CCC(C)c1ccc(Nc2ccc3nnc(Cc4ccc(O)cc4)n3n2)cc1 (centres unmarked) [Compound 183]	5.70 to 7.00
COc1cccc(Nc2ccc3nnc(Cc4ccc(O)cc4)n3n2)c1 [Compound 184]	> 7.00
Oc1ccc(Cc2nnc3ccc(Nc4cccc(Cl)c4)nn23)cc1 [Compound 185]	> 7.00
Oc1ccc(Cc2nnc3ccc(Nc4ccc(Cl)cc4)nn23)cc1 [Compound 186]	5.70 to 7.00
Oc1ccc(Cc2nnc3ccc(NCC4CCCO4)nn23)cc1 (centres unmarked) [Compound 187]	5.70 to 7.00
CC(C)C[C@@H](CO)Nc1ccc2nnc(Cc3ccc(O)cc3)n2n1 [Compound 188]	5.70 to 7.00
C[C@@H](Nc1ccc2nnc(Cc3ccc(O)cc3)n2n1)C1CCCCC1 [Compound 189]	5.70 to 7.00
O=C1CCN(c2ccc3nnc(Cc4ccc(O)cc4)n3n2)CCN1 [Compound 190]	5.70 to 7.00
OC[C@H](Cc1ccccc1)Nc1ccc2nnc(Cc3ccc(O)cc3)n2n1 [Compound 191]	< 5.70
Oc1ccc(Cc2nnc3ccc(N[C@@H]4C[C@H]4c4ccccc4)nn23)cc1 [Compound 192]	< 5.70
CC(C)[C@H](C)Nc1ccc2nnc(Cc3ccc(O)cc3)n2n1 [Compound 193]	5.70 to 7.00
COc1cccc(N2CCN(c3ccc4nnc(Cc5ccc(O)cc5)n4n3)CC2)c1 [Compound 194]	5.70 to 7.00
Oc1ccc(Cc2nnc3ccc(NCC4CCCCC4)nn23)cc1 [Compound 195]	5.70 to 7.00
CN(c1ccc2nnc(Cc3ccc(O)cc3)n2n1)C1CCCCC1 [Compound 196]	5.70 to 7.00
CCN1CCCC1CNc1ccc2nnc(Cc3ccc(O)cc3)n2n1 (centres unmarked) [Compound 197]	< 5.70
OCCCCNc1ccc2nnc(Cc3ccc(O)cc3)n2n1 [Compound 198]	5.70 to 7.00
O=C1CCCN1CCCNc1ccc2nnc(Cc3ccc(O)cc3)n2n1 [Compound 199]	< 5.70
Oc1ccc(Cc2nnc3ccc(N4CCC[C@H]4CN4CCCC4)nn23)cc1 [Compound 200]	< 5.70
Oc1ccc(Cc2nnc3ccc(N4CCC(c5ccccc5)C4)nn23)cc1 (centres unmarked) [Compound 201]	< 5.70
Oc1ccc(Cc2nnc3ccc(N4CCCC4c4ccc(F)cc4)nn23)cc1 (centres unmarked) [Compound 202]	< 5.70

Structure (SMILES)	pKi
NC(=O)[C@H]1CCC[C@H]1Nc1ccc2nnc(Cc3ccc(O)cc3)n2n1 [Compound 203]	< 5.70
Oc1ccc(Cc2nnc3ccc(NCCN4CCOCC4)nn23)cc1 [Compound 204]	< 5.70
Oc1ccc(Cc2nnc3ccc(N4CCC(CCc5ccccc5)C4)nn23)cc1 (centres unmarked) [Compound 205]	5.70 to 7.00
COc1ccc(Cc2nnc3ccc(-c4ccccc4)nn23)cc1OC [Compound 206, 3-(3,4-dimethoxybenzyl)-6-phenyl-[1,2,4]triazolo[4,3-b]pyridazine]	< 5.70
c1ccc(-c2ccc3nnc(Cc4ccc5c(c4)OCO5)n3n2)cc1 [Compound 207]	5.70 to 7.00
c1ccc(-c2ccc3nnc(CNc4cccnc4)n3n2)cc1 [Compound 208]	< 5.70
CC(=O)Nc1ccc(NCc2nnc3ccc(-c4ccccc4)nn23)cc1 [Compound 209]	< 5.70
CC(=O)Nc1cccc(NCc2nnc3ccc(-c4ccccc4)nn23)c1 [Compound 210]	< 5.70
c1ccc(-c2ccc3nnc(CNc4ccncc4)n3n2)cc1 [Compound 211]	< 5.70
CN(C)c1ccc(Cc2nnc3ccc(-c4ccccc4)nn23)cc1 [Compound 212]	< 5.70
Oc1ccc(Cc2nnc3ccc(-c4ccccc4)nn23)cc1F [Compound 213]	5.70 to 7.00
Oc1ccc(Cc2nnc3ccc(NC4CCCCC4)nn23)cc1 [Compound 214]	> 7.00
Cc1cc(Nc2ccc3nnc(Cc4ccc(O)cc4)n3n2)ccc1Cl [Compound 215]	> 7.00
O=c1[nH]c2ccc(Nc3ccc4nnc(Cc5ccc(O)cc5)n4n3)cc2[nH]1 [Compound 216]	> 7.00
Oc1ccc(Cc2nnc3ccc(NC4c5ccccc5CC4O)nn23)cc1 (centres unmarked) [Compound 217]	5.70 to 7.00
O=c1ccn(Cc2nnc3ccc(-c4ccccc4)nn23)cc1 [Compound 218]	< 5.70
Oc1ccc(Cc2nnc3ccc(Nc4cccc(F)c4)nn23)cc1Cl [Compound 219]	> 7.00
Fc1cccc(Nc2ccc3nnc(Cc4ccncc4)n3n2)c1 [Compound 220]	5.70 to 7.00
N#Cc1cccc(Nc2ccc3nnc(Cc4ccc5c(c4)OCO5)n3n2)c1 [Compound 221]	> 7.00
CCc1cccc(Nc2ccc3nnc(Cc4ccncc4)n3n2)c1 [Compound 222]	< 5.70
Oc1ccc(Cc2nnc3ccc(Nc4cccc(C(F)(F)F)c4)nn23)cc1 [Compound 223]	> 7.00

Structure (SMILES)	pKi
Oc1ccc(Cc2nnc3ccc(Nc4cccc(C(F)(F)F)c4)nn23)cc1Cl [Compound 224]	> 7.00
COc1ccc(Cc2nnc3ccc(Nc4cccc(C(F)(F)F)c4)nn23)cc1 [Compound 225]	5.70 to 7.00
FC(F)(F)c1cccc(Nc2ccc3nnc(Cc4ccc5c(c4)OCO5)n3n2)c1 [Compound 226]	5.70 to 7.00
FC(F)(F)c1cccc(Nc2ccc3nnc(Cc4ccncc4)n3n2)c1 [Compound 227]	5.70 to 7.00
Cc1cccc(Nc2ccc3nnc(Cc4ccc(O)c(Cl)c4)n3n2)c1 [Compound 228]	5.70 to 7.00
COc1ccc(Cc2nnc3ccc(Nc4cccc(C)c4)nn23)cc1 [Compound 229]	5.70 to 7.00
Cc1cccc(Nc2ccc3nnc(Cc4ccc5c(c4)OCO5)n3n2)c1 [Compound 230]	5.70 to 7.00
Cc1cccc(Nc2ccc3nnc(Cc4ccncc4)n3n2)c1 [Compound 231]	< 5.70
CNC(=O)c1cccc(Nc2ccc3nnc(Cc4ccc(O)cc4)n3n2)c1 [Compound 232]	5.70 to 7.00
CNC(=O)c1cccc(Nc2ccc3nnc(Cc4ccc(O)c(F)c4)n3n2)c1 [Compound 233]	5.70 to 7.00
CNC(=O)c1cccc(Nc2ccc3nnc(Cc4ccc(O)c(Cl)c4)n3n2)c1 [Compound 234]	5.70 to 7.00
CNC(=O)c1cccc(Nc2ccc3nnc(Cc4ccc(OC)cc4)n3n2)c1 [Compound 235]	5.70 to 7.00
CNC(=O)c1cccc(Nc2ccc3nnc(Cc4ccc5c(c4)OCO5)n3n2)c1 [Compound 236]	5.70 to 7.00
Oc1ccc(Cc2nnc3ccc(Nc4cccc(Cl)c4)nn23)cc1Cl [Compound 237]	> 7.00
COc1ccc(Cc2nnc3ccc(Nc4cccc(Cl)c4)nn23)cc1 [Compound 238]	> 7.00
Clc1cccc(Nc2ccc3nnc(Cc4ccc5c(c4)OCO5)n3n2)c1 [Compound 239]	> 7.00
Clc1cccc(Nc2ccc3nnc(Cc4ccncc4)n3n2)c1 [Compound 240]	5.70 to 7.00
COc1cccc(Nc2ccc3nnc(Cc4ccc(O)c(Cl)c4)n3n2)c1 [Compound 241]	5.70 to 7.00
COc1ccc(Cc2nnc3ccc(Nc4cccc(OC)c4)nn23)cc1 [Compound 242]	5.70 to 7.00
